The test has as its target T1, MAP3K7/MAP3K7IP1 (TAK1-TAB1) (Homo sapiens, UniProt O43318).
T1 construct: purchased Thermo Fisher Scientific (Life Technologies) SelectScreen
The test is described as follows: SelectScreen LanthaScreen. The test is classed as binding. Conditions: read-out: % displacement. The method, boiled down: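 Percent values come from Thermo SelectScreen profiling of NU5455, combining activity and binding assays. CSF1R was run in Z'LYTE format at Km app ATP, and CAMK1 in Adapta format with ATP listed at 10.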
In general terms: TR-FRET usually uses a lanthanide donor and a delayed reading to cut background.

T1 sequence (O43318 1-303 limits assumed): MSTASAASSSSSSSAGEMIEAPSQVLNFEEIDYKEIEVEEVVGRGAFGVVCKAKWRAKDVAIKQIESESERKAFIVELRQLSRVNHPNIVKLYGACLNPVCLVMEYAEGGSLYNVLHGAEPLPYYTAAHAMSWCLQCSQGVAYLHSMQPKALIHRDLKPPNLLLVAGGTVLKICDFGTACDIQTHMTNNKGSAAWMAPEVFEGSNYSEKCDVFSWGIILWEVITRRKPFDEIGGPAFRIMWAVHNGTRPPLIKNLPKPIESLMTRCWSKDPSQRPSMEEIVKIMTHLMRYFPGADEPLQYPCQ
T1 sequence (Q15750 437-504 partner limits assumed): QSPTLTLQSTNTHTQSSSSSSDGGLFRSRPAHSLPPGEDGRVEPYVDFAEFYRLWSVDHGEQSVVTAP

Turning to `CN(C(=O)CN1CCOCC1)c1ccc2sc3c(-c4cccc5c(=O)cc(N6CC7CCC(C6)O7)oc45)cccc3c2c1` [NU5455], the inhibition at 1 µM is -3.4%.

These data come from article PMC6934184, “Selective DNA-PKcs inhibition extends the therapeutic index of localized radiotherapy and chemotherapy” (The Journal of Clinical Investigation, 2019).
